# From patent US20230061417A1, “THIENOPYRIMIDINE DERIVATIVES AS LPA RECEPTOR 2 INHIBITORS” (CHIESI FARMACEUTICI S.P.A., priority 2019, published 2023)
# Target: T1, human recombinant LPA2 (Homo sapiens, UniProt Q9HBW0)
# T1 construct: expressed in transfected cells; host or cells: CHO (CHO-hLPA2 cell line)
# Assay: FLIPR calcium mobilization assay, LPA2 antagonism in CHO-hLPA2 cells
# Type: cell-based
# Settings: human recombinant LPA2 in CHO cells, LPA EC80 stimulation, 30 min pre-incubation; read-out: LPA2 IC50
# Description: The effectiveness of compounds of the present invention as LPA2 antagonist can be determined at the human recombinant LPA2 expressed in CHO cells, using a FLIPR assay in 384 well format.
# CHO-hLPA2 cell lines are cultured in a humidified incubator at 5% CO2 in DMEM/F-12 (1:1) MIXTURE with 2 mM Glutamax, supplemented with 10% of Foetal Bovine Serum, 1 mM Sodium Pyruvate, 11 mM Hepes and 1× Penicillin/Streptomycin. CHO hLPA2 cells are seeded into black walled clear-bottom 384-well plates (#781091, Greiner Bio-One GmbH) at a density of 7,500 cells per well in 50 μl culture media and grown overnight in a 37° C. humidified CO2-incubator. Serial dilutions (1:3 or 1:4, 11 points CRC) of compounds are performed in 100% DMSO at 200× the final concentration. The compounds are diluted 1:50 prior to the experiment with Assay Buffer (20 mM HEPES, 145 mM NaCl, 5 mM KCl, 5.5 mM glucose, 1 mM MgCl2 and 2 mM CaCl2, pH 7.4 containing 0.01% Pluronic F-127) to obtain a solution corresponding to […] the final concentration in the assay (4×, 2% DMSO). The final concentration of DMSO in the assay will be 0.5% in each well. Medium is removed by aspiration and cells are then incubated with 30 μl of a loading solution containing 5 μM of the cytoplasmic Ca2+ indicator Cal-520 AM in Assay Buffer containing 2.5 mM probenecid for 30 min at 37° C. incubator (cell loading). The loaded cell plates are transferred into the FLIPR instrument and calcium responses are monitored during the on-line addition protocols. For testing of compounds, after the cell loading, 10 μl/well of 4× antagonists' solution was added onto the cells. After 30 min pre-incubation (at 37° C.), 10 μl/well of 5× concentrated LPA EC80 was added and Ca2+ mobilization responses was followed during the on-line addition protocol. Intracellular peak fluorescence values subtracted by baseline fluorescence are exported and analysed to determine IC50 values, respectively. The calcium response is expressed as percentage of the maximal inhibition of the EC80 agonist response.
# The raw data (peak height expressed as relative fluorescence units) are normalized and transformed into “percent of inhibition”. Curve fitting and pIC50 (−Log IC50) estimations are carried out using a four-parameter logistic model using XLfit Software.
# T1 sequence (Q9HBW0 whole entry): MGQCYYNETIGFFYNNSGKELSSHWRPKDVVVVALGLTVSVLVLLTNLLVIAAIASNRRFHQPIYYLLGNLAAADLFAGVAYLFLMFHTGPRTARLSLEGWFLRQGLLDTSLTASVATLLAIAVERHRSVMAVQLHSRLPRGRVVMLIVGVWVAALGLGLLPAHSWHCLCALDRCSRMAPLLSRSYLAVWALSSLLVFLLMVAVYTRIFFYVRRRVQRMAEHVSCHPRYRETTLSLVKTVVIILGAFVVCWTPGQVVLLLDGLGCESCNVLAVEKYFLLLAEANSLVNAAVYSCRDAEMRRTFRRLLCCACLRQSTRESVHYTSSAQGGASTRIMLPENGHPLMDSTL
row,Compound,IC50 [nM]
1,"CC(=O)Nc1cc(F)c(S(=O)(=O)N2CCN(C[C@H](C)Nc3ncnc4c(C)csc34)CC2)cc1Cl [Example 18, N-[2-chloro-5-fluoro-4-({4-[(2S)-2-({7-methylthieno[3,2-d]pyrimidin-4-yl}amino)propyl]piperazin-1-yl}sulfonyl)phenyl]acetamide]",< 1000
2,"CCC(=O)Nc1nc(C)c(S(=O)(=O)N2CCN(C[C@H](C)Nc3ncnc4c(C)csc34)CC2)s1 [Example 19, N-[4-methyl-5-({4-[(2S)-2-({7-methylthieno[3,2-d]pyrimidin-4-yl}amino)propyl]piperazin-1-yl}sulfonyl)-1,3-thiazol-2-yl]propanamide]",< 1000
3,"COC(=O)Nc1nc(C)c(S(=O)(=O)N2CCN(C[C@H](C)Nc3ncnc4c(C)csc34)CC2)s1 [Example 20, methyl N-[4-methyl-5-({4-[(2S)-2-({7-methylthieno[3,2-d]pyrimidin-4-yl}amino)propyl]piperazin-1-yl}sulfonyl)-1,3-thiazol-2-yl]carbamate]",< 1000
4,"Cc1csc2c(N[C@@H](C)CN3CCN(S(=O)(=O)c4ccc(-c5ccno5)s4)CC3)ncnc12 [Example 21, 7-methyl-N-[(2S)-1-(4-{[5-(1,2-oxazol-5-yl)thiophen-2-yl]sulfonyl}piperazin-1-yl)propan-2-yl]thieno[3,2-d]pyrimidin-4-amine]",< 1000
5,"CC(=O)Nc1ncc(S(=O)(=O)N2CCN(C[C@H](C)Nc3nc(C4CC4)nc4c(C)csc34)CC2)s1 [Example 22, N-[5-({4-[(2S)-2-({2-cyclopropyl-7-methylthieno[3,2-d]pyrimidin-4-yl}amino)propyl]piperazin-1-yl}sulfonyl)-1,3-thiazol-2-yl]acetamide]",< 1000
6,"Cc1nc2ccc(S(=O)(=O)N3CCN(C[C@H](C)Nc4ncnc5c(C)csc45)CC3)cc2s1 [Example 23, 7-methyl-N-[(2S)-1-{4-[(2-methyl-1,3-benzothiazol-6-yl)sulfonyl]piperazin-1-yl}propan-2-yl]thieno[3,2-d]pyrimidin-4-amine]",< 1000
7,"CC(=O)N1CCc2cc(S(=O)(=O)N3CCN(C[C@H](C)Nc4ncnc5c(C)csc45)CC3)ccc21 [Example 24, 1-[5-({4-[(2S)-2-({7-methylthieno[3,2-d]pyrimidin-4-yl}amino)propyl]piperazin-1-yl}sulfonyl)-2,3-dihydro-1H-indol-1-yl]ethan-1-one]",< 1000
8,"Cc1csc2c(N[C@@H](C)CN3CCN(S(=O)(=O)c4cnn(-c5ccc(C(F)(F)F)cn5)c4)CC3)ncnc12 [Example 25, 7-methyl-N-[(2S)-1-[4-({1-[5-(trifluoromethyl)pyridin-2-yl]-1H-pyrazol-4-yl}sulfonyl)piperazin-1-yl]propan-2-yl]thieno[3,2-d]pyrimidin-4-amine]",< 1000
9,"Cc1nc(NC=O)sc1S(=O)(=O)N1CCN(C[C@H](C)Nc2ncnc3c(C)csc23)CC1 [Example 26, N-[4-methyl-5-({4-[(2S)-2-({7-methylthieno[3,2-d]pyrimidin-4-yl}amino)propyl]piperazin-1-yl}sulfonyl)-1,3-thiazol-2-yl]formamide]",< 1000
10,"Cc1nc(-c2ccc(S(=O)(=O)N3CCN(C[C@H](C)Nc4ncnc5c(C)csc45)CC3)s2)cs1 [Example 27, 7-methyl-N-[(2S)-1-(4-{[5-(2-methyl-1,3-thiazol-4-yl)thiophen-2-yl]sulfonyl}piperazin-1-yl)propan-2-yl]thieno[3,2-d]pyrimidin-4-amine]",< 1000
11,"Cc1noc(-c2ccc(S(=O)(=O)N3CCN(C[C@H](C)Nc4ncnc5c(C)csc45)CC3)s2)c1C [Example 28, N-[(2S)-1-(4-{[5-(3,4-dimethyl-1,2-oxazol-5-yl)thiophen-2-yl]sulfonyl}piperazin-1-yl)propan-2-yl]-7-methylthieno[3,2-d]pyrimidin-4-amine]",10 to 100
12,"Cc1csc2c(N[C@@H](C)CN3CCN(S(=O)(=O)c4ccc(-c5cc(C(F)(F)F)n(C)n5)s4)CC3)ncnc12 [Example 29, 7-methyl-N-[(2S)-1-[4-({5-[1-methyl-5-(trifluoromethyl)-1H-pyrazol-3-yl]thiophen-2-yl}sulfonyl)piperazin-1-yl]propan-2-yl]thieno[3,2-d]pyrimidin-4-amine]",< 1000
13,"Cc1csc2c(N[C@@H](C)CN3CCN(S(=O)(=O)c4ccc(-c5ccccn5)s4)CC3)ncnc12 [Example 30, 7-methyl-N-[(2S)-1-(4-{[5-(pyridin-2-yl)thiophen-2-yl]sulfonyl}piperazin-1-yl)propan-2-yl]thieno[3,2-d]pyrimidin-4-amine]",< 1000
14,"COC(=O)Nc1nc(C)c(S(=O)(=O)N2CCN(C[C@H](C)Nc3nc(C4CC4)nc4c(C)csc34)CC2)s1 [Example 31, methyl N-[5-({4-[(2S)-2-({2-cyclopropyl-7-methylthieno[3,2-d]pyrimidin-4-yl}amino)propyl]piperazin-1-yl}sulfonyl)-4-methyl-1,3-thiazol-2-yl]carbamate]",10 to 100
15,"COC(=O)Nc1nc(C)c(S(=O)(=O)N2CCN(C[C@H](C)Nc3nc(Cl)nc4c(C(F)(F)F)csc34)CC2)s1 [Example 32, methyl N-[5-({4-[(2S)-2-{[2-chloro-7-(trifluoromethyl)thieno[3,2-d]pyrimidin-4-yl]amino}propyl]piperazin-1-yl}sulfonyl)-4-methyl-1,3-thiazol-2-yl]carbamate]",< 1000
16,"Cc1nc(NC(=O)C2CN(C(=O)OC(C)(C)C)C2)sc1S(=O)(=O)N1CCN(C[C@H](C)Nc2ncnc3c(C)csc23)CC1 [Example 33, tert-butyl 3-{[4-methyl-5-({4-[(2S)-2-({7-methylthieno[3,2-d]pyrimidin-4-yl}amino)propyl]piperazin-1-yl}sulfonyl)-1,3-thiazol-2-yl]carbamoyl}azetidine-1-carboxylate]",< 1000
17,"COC(=O)Nc1nc(C)c(S(=O)(=O)N2CCN(C[C@H](C)Nc3nc(C4CC4)nc4c(C(F)(F)F)csc34)CC2)s1 [Example 34, methyl N-[5-({4-[(2S)-2-{[2-cyclopropyl-7-(trifluoromethyl)thieno[3,2-d]pyrimidin-4-yl]amino}propyl]piperazin-1-yl}sulfonyl)-4-methyl-1,3-thiazol-2-yl]carbamate]",< 10
18,"CC(=O)Nc1nc(C)c(S(=O)(=O)N2CCN(C[C@H](C)Nc3nc(C4CC4)nc4c(C)csc34)CC2)s1 [Example 35, N-[5-({4-[(2S)-2-({2-cyclopropyl-7-methylthieno[3,2-d]pyrimidin-4-yl}amino)propyl]piperazin-1-yl}sulfonyl)-4-methyl-1,3-thiazol-2-yl]acetamide]",10 to 100
19,"CCc1nc(N[C@@H](C)CN2CCN(S(=O)(=O)c3sc(NC(C)=O)nc3C)CC2)c2scc(C)c2n1 [Example 36, N-[5-({4-[(2S)-2-({2-ethyl-7-methylthieno[3,2-d]pyrimidin-4-yl}amino)propyl]piperazin-1-yl}sulfonyl)-4-methyl-1,3-thiazol-2-yl]acetamide]",< 1000
20,"COC(=O)Nc1nc(C)c(S(=O)(=O)N2CCN(C[C@H](C)Nc3nc(C)nc4c(C)csc34)CC2)s1 [Example 37, Methyl N-[5-({4-[(2S)-2-({2,7-dimethylthieno[3,2-d]pyrimidin-4-yl}amino)propyl]piperazin-1-yl}sulfonyl)-4-methyl-1,3-thiazol-2-yl]carbamate]",< 1000
21,"CCc1nc(N[C@@H](C)CN2CCN(S(=O)(=O)c3sc(NC(=O)OC)nc3C)CC2)c2scc(C)c2n1 [Example 38, methyl N-[5-({4-[(2S)-2-({2-ethyl-7-methylthieno[3,2-d]pyrimidin-4-yl}amino)propyl]piperazin-1-yl}sulfonyl)-4-methyl-1,3-thiazol-2-yl]carbamate]",10 to 100

# Same assay, conditions: same in vitro assay as Table 2; read-out: IC50 on LPA2 receptor
row,Compound,IC50 [nM]
1,"COC(=O)Nc1nc(C)c(S(=O)(=O)N2CCN(C[C@H](C)Nc3ncnc4c(-c5cccnc5)cn(C)c34)CC2)s1 [comparative Example A, Methyl (S)-(4-methyl-5-((4-(2-((5-methyl-7-(pyridin-3-yl)-5H-pyrrolo[3,2-d]pyrimidin-4-yl)amino)propyl)piperazin-1-yl)sulfonyl)thiazol-2-yl)carbamate, reference compound]",> 2000
